Source: ChEMBL document CHEMBL1201862, “PubChem BioAssay data set” (2004)
The source made the active and inactive calls.

Experiments:
cells = type: functional, cell-based
[1] = molecular target: T1, Nuclear receptor subfamily 0 group B member 1 (Homo sapiens, UniProt P51843); type: functional, cell-based;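 further: HEK293T cells transfected with SF-1 and DAX-1 plus StAR promoter luciferase reporter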
T1 sequence (P51843 whole entry): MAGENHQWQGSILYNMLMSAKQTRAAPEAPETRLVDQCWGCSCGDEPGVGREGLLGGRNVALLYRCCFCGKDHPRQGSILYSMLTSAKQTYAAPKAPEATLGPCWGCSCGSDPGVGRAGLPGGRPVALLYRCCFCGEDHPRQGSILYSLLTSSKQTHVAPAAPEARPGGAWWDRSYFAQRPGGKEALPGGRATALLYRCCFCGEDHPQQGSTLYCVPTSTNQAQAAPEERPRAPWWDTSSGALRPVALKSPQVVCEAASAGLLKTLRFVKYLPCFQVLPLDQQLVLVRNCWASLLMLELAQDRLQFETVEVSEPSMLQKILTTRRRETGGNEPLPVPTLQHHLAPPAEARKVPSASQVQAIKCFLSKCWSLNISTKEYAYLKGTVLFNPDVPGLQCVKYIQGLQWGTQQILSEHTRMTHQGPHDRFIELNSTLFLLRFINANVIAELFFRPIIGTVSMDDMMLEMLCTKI

[2] = tested on: Streptococcus sp. 'group A'; test: growth inhibition of control SK(-) GAS strain, dose response, counter-screen for streptokinase expression inhibitor project, luminescence, kanamycin, BacTiterGlo, confirmation (AID 1900); type: functional, organism-based
Streptokinase A = molecular target: T2, Streptokinase A (Streptococcus pyogenes serotype M1, UniProt P10520); test: S. pyogenes streptokinase expression inhibitors, potency, dose response, plasminogen activation absorbance, OD405 (AID 1914); type: functional, Streptococcus pyogenes M1 GAS;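 further: secreted streptokinase activity via plasminogen activation per viability signal from cell pellet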
T2 sequence (P10520 whole entry): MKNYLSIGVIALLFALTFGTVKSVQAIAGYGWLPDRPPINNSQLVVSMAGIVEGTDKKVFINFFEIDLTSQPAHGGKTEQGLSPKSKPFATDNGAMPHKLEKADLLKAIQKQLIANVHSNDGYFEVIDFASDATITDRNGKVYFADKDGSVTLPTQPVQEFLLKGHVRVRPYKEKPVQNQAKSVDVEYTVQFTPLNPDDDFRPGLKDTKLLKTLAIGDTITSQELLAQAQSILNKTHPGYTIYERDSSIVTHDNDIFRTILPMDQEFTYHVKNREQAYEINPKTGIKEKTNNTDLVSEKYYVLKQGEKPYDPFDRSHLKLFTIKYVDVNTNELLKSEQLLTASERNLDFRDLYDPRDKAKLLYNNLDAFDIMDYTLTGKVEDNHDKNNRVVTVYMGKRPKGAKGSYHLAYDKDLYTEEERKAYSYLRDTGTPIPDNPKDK

Streptococcus = test: Group A Streptococcus viability loss, dose response, counter-screen for streptokinase expression inhibitor project, luminescence, BacTiterGlo (AID 1915); type: functional, organism-based;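 further: potency for reduction of bacterial viability or growth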
Albumin = Albumin (Bos taurus, UniProt P02769); test: Counterscreen for inhibitors of T-cell receptor (TCR)-CD3 interaction: Fluorescence-based biochemical high throughput dose response assay to identify inhibitors of T-cell receptor (TCR)-CD3 interaction using a TAMRA-labeled BSA probe.; type: functional
Chain of Albumin (P02769 whole entry): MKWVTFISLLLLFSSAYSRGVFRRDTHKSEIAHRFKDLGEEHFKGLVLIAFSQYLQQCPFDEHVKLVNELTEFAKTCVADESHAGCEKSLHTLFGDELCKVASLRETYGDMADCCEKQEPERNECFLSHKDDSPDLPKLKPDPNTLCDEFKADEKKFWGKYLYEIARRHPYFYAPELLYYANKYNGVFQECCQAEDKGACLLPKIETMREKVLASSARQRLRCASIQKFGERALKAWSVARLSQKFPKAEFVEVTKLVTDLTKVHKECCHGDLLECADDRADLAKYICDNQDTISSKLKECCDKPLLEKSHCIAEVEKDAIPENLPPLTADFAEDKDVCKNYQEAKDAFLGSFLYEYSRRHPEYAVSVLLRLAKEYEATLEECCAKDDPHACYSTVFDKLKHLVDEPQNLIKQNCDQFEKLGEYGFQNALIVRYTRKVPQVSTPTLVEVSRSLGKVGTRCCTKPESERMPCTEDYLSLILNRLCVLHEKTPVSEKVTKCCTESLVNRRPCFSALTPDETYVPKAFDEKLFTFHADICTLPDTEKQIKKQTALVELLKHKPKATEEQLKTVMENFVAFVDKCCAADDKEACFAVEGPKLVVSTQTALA

[3] = molecular target: T3, Fructose-bisphosphate aldolase (Mycobacterium tuberculosis, UniProt P9WQA3); test: Fluorescence-based biochemical high throughput dose response assay for inhibitors of the fructose-bisphosphate aldolase (FBA) of M. tuberculosis.; type: functional
T3 sequence (P9WQA3 whole entry): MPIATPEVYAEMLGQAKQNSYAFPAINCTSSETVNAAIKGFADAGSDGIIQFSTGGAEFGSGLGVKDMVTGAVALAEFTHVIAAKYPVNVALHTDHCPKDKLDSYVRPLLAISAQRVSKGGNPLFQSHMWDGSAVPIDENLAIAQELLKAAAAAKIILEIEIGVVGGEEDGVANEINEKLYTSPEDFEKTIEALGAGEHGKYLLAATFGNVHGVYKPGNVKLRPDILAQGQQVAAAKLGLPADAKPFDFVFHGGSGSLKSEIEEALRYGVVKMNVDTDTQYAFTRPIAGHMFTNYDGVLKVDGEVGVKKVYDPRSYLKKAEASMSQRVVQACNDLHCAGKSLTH

[4] = growth suppression of PTEN-null colon cells, dose response, cell-based, HCT116 PTEN knockout (AID 1047); type: functional;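 further: HCT116 colon tumor cells with PTEN knocked out; cells exposed to compound for 60 hours before readout; potency for loss of cell viability measured by luminescence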
[5] = growth suppression of beta-catenin-knockout colon cells, dose response, cell-based, HCT116, human colon tumor (AID 1045); type: functional;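 further: HCT116 colon tumor cells with beta catenin knocked out; cells exposed to compound for 60 hours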
[6] = human group III sPLA2 inhibitors, dose response, biochemical, QFRET, IC50 (AID 743457);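 further: green fluorescence rise as the enzyme cleaves BODIPY PC-A2 in liposomes; potency for inhibition of the enzyme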
[7] = molecular target: T4, Corticotropin-releasing factor receptor 2/Corticotropin-releasing factor-binding protein (Homo sapiens, UniProt P24387+Q13324); test: Dose Response confirmation of uHTS hits for small molecule antagonists of the CRF-binding protein and CRF-R2 receptor complex.; type: functional; settings: read-out: IC50_Mean
T4 sequence (Q13324 whole entry): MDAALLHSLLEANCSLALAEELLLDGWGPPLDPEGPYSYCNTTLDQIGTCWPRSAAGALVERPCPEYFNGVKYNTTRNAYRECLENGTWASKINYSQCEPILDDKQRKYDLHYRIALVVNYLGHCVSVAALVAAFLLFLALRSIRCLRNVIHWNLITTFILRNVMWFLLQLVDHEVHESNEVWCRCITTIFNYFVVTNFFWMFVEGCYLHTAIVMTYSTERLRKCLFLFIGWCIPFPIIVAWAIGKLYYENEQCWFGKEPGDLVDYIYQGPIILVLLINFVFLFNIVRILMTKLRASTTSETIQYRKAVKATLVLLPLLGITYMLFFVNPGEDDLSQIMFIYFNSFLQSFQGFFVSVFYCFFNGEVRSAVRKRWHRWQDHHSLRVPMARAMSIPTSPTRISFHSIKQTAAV
T4 sequence (P24387 whole entry): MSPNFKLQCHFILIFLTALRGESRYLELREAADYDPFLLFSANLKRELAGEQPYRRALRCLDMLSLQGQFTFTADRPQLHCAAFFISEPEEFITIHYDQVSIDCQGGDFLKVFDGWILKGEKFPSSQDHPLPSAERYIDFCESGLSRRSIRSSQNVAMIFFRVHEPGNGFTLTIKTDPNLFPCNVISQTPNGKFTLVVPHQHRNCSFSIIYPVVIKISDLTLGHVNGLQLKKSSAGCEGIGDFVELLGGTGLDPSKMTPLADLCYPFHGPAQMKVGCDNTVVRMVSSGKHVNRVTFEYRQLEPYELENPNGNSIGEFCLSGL

[8] = molecular target: T4, Corticotropin-releasing factor receptor 2/Corticotropin-releasing factor-binding protein; test: activators of CRF receptor 2 with binding protein – uHTS hits, confirmation (AID 602473); type: functional; settings: read-out: EC50_Mean
[9] = molecular target: T5, Methionyl-tRNA synthetase, putative (Trypanosoma brucei brucei, UniProt Q38C91); type: functional, Trypanosoma brucei brucei strain 927/4 GUTat10.1
T5 sequence (Q38C91 whole entry): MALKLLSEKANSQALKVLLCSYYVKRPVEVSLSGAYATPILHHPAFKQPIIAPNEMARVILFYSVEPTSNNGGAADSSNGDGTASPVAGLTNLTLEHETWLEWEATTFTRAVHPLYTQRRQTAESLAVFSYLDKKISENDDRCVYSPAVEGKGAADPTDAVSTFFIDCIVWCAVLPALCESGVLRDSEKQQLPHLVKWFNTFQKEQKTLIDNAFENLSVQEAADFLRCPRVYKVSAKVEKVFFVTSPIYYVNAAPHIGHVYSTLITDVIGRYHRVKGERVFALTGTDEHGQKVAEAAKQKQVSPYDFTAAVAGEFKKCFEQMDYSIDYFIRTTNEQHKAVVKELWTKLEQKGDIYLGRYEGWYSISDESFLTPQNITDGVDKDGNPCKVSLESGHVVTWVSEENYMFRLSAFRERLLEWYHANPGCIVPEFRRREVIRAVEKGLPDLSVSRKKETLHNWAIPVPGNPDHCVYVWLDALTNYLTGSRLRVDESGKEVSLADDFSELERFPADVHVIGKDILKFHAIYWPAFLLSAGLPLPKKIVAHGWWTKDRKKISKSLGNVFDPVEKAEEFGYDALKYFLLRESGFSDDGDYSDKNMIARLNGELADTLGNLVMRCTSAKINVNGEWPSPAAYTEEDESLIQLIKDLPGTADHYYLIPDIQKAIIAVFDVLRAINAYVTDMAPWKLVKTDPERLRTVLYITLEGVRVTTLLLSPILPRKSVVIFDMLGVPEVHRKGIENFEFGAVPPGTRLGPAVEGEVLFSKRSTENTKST

[10] = Counterscreen for inhibitors of Trypanosoma brucei methionyl tRNA synthetase (MetRS): Luminescence-based cell-based high throughput dose response assay to identify compounds that are cytotoxic to Jurkat human T lymphocyte cells.; type: functional
[11] = molecular target: T5, Methionyl-tRNA synthetase, putative; type: functional, Trypanosoma brucei brucei strain 927/4 GUTat10.1; remark: listed apart in the source
Fatty acid synthase [12] = molecular target: T6, Fatty acid synthase (Homo sapiens, UniProt P49327); test: FAS thioesterase domain inhibitors, dose response, biochemical, endpoint fluorescence intensity, uHTS hits (AID 624327); type: functional;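 further: fluorescence from hydrolysis of an O-methyl fluorescein acyl ester substrate by the enzyme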
T6 sequence (P49327 whole entry, the tested form may be a part): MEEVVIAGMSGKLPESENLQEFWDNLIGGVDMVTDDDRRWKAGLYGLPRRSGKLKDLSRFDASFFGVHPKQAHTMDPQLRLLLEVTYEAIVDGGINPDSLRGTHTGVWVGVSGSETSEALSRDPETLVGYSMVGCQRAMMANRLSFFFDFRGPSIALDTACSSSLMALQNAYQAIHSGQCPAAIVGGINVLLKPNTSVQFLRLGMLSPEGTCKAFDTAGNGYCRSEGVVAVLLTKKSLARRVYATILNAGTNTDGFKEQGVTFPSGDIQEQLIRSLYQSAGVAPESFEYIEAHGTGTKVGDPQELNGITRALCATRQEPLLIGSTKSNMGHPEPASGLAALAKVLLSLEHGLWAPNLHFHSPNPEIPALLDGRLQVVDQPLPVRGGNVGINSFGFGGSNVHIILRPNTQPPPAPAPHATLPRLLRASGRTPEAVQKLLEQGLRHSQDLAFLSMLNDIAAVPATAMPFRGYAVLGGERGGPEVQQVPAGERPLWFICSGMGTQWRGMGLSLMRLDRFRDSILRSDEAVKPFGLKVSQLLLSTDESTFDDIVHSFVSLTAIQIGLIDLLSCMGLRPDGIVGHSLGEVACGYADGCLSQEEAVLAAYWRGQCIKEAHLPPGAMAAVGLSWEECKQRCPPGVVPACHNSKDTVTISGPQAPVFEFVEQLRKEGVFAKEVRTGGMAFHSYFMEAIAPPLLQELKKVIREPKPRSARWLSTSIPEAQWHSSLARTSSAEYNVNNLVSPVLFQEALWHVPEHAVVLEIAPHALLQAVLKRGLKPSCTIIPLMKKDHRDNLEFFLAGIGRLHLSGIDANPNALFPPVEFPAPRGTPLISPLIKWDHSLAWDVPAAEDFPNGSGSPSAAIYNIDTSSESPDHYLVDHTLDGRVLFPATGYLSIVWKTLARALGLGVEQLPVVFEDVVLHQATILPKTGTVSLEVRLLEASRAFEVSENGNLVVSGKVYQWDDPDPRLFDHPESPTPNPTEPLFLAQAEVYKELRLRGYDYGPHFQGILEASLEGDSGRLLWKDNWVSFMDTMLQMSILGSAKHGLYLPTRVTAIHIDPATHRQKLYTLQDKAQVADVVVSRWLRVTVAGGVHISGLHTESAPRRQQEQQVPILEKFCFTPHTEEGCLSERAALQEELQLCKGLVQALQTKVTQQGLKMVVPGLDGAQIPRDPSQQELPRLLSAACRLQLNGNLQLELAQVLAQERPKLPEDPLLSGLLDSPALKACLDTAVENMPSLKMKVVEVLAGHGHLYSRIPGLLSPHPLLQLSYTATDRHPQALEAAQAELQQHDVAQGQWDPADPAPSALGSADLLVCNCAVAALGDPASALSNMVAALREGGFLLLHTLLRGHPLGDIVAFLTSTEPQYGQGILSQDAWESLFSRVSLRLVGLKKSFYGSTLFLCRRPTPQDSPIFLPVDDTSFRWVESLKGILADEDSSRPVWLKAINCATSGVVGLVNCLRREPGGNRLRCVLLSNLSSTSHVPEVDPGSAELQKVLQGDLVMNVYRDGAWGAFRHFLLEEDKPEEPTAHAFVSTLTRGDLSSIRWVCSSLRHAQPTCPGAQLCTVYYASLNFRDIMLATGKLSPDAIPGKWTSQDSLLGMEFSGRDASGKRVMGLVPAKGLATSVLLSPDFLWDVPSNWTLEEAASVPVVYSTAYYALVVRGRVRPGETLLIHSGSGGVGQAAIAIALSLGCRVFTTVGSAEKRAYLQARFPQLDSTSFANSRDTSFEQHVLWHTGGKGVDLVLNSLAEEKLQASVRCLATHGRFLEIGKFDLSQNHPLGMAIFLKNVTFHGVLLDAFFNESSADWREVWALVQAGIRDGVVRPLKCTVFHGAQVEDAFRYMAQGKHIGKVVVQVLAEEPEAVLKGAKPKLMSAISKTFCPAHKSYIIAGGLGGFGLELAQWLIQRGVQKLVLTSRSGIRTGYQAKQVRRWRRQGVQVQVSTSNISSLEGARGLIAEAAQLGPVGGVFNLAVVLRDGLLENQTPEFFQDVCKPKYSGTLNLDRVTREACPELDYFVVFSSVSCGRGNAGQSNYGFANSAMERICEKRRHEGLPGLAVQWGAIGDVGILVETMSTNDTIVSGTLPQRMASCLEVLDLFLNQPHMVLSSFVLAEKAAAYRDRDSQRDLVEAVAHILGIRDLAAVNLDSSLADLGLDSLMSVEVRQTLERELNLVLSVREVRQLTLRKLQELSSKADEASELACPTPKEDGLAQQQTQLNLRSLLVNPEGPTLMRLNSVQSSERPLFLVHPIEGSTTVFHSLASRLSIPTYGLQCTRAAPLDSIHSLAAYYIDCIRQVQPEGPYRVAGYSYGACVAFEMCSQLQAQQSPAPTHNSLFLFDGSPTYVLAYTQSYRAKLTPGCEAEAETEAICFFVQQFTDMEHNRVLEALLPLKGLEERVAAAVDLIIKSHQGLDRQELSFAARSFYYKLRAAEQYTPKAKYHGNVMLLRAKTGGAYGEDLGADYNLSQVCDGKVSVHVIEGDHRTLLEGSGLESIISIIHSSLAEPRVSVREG

Fatty acid synthase [13] = molecular target: T6, Fatty acid synthase; test: FAS thioesterase domain inhibitors, dose response, biochemical, kinetic fluorescence intensity (AID 624326); type: functional;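 further: rate of fluorescence rise from hydrolysis of a fluorogenic O-methyl fluorescein ester substrate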
[14] = molecular target: T7, Histone-lysine N-methyltransferase NSD2 (Homo sapiens, UniProt O96028); type: biochemical
T7 sequence (O96028 whole entry): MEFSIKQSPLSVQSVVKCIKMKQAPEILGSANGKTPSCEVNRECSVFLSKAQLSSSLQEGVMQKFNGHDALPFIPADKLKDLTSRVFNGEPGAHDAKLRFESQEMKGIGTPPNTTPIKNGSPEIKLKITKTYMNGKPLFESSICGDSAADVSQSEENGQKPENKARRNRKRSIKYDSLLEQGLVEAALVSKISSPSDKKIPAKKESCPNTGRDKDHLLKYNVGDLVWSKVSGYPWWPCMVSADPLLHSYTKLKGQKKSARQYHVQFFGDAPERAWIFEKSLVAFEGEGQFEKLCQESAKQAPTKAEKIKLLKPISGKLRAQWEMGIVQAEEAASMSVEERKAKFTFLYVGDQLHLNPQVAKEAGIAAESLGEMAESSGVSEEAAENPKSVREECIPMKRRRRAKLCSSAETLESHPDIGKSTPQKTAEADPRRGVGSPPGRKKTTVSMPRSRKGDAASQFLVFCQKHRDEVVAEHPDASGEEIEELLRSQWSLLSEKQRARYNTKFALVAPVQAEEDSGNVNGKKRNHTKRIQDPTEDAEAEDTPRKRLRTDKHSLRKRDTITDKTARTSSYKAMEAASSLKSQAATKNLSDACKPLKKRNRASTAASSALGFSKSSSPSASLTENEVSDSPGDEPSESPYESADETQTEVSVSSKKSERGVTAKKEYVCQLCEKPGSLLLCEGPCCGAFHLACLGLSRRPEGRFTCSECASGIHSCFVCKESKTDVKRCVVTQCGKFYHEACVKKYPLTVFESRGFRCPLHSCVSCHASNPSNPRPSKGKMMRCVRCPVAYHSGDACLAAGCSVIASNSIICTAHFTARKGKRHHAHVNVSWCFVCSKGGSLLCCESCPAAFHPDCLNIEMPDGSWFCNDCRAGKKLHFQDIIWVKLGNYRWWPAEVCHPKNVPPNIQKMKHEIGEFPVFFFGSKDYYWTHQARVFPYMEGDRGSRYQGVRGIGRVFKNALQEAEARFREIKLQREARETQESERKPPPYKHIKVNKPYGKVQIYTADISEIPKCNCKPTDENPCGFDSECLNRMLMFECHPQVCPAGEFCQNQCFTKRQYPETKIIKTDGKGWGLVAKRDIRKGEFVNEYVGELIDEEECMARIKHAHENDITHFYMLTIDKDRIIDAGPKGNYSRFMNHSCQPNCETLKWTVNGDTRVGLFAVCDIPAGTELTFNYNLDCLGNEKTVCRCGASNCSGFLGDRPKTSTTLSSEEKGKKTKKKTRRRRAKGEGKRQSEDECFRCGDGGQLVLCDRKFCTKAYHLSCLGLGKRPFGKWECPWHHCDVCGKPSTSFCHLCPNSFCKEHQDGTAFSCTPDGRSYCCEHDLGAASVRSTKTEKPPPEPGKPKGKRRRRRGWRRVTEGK

Paired box protein Pax-8 = Paired box protein Pax-8 (Homo sapiens, UniProt Q06710); test: inhibitors of PAX8-driven TPO luciferase reporter, dose response, RMG-I cells, cherry-pick (AID 687027); type: functional, cell-based;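 further: luciferase reporter driven by Pax8 target thyroperoxidase promoter measured by SteadyGlo luminescence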
Chain of Paired box protein Pax-8 (Q06710 whole entry): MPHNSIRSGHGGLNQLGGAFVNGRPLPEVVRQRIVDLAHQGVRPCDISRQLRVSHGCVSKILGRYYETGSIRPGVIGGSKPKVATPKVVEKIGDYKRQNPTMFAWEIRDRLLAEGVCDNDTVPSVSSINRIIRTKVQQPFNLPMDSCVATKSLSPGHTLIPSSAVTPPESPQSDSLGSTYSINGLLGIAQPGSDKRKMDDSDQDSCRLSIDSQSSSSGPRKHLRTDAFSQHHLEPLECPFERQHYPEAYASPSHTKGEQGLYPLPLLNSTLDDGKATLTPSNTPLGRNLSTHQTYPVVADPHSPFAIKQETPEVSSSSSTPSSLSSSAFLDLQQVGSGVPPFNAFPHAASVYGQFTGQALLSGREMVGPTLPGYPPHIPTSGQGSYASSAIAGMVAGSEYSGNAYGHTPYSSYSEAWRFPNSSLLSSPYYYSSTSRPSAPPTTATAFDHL

[15] = NIH:OVCAR-3 ovarian cancer cell cytotoxicity, dose response, PAX8 inhibitor project, plate reader, dry powder samples (AID 743044); type: functional, cell-based
[16] = IGROV1 ovarian cancer cell cytotoxicity, dose response, PAX8 inhibitor project, plate reader, dry powder samples (AID 743043); type: functional, cell-based; settings: IGROV-1

COc1ccc(C(=O)Nc2cccc(OC)c2)cc1
IC50 (cells): > 67.6 µM (inactive) | IC50 [1]: > 67.6 µM (inactive)

CCCCCC(=O)NC(=S)NC1C2CC3CC(C2)CC1C3 (stereo unspecified)
EC50 [2]: 3.42 µM (active) | EC50 (Streptokinase A): 11.5 µM (active) | EC50 (Streptococcus): 27.9 µM (active) | IC50 (Albumin): > 94.1 µM (inactive)

N#Cc1c(-c2ccc(Br)cc2)cc(-c2cccnc2)nc1N
IC50 [3]: 1.2 µM (active)

Cc1ccc(C)c(N2CCN(S(=O)(=O)c3c(C)noc3/C=C/N(C)C)CC2)c1
EC50 [4]: 26.5 µM (active) | EC50 [5]: 32.6 µM (active) | IC50 [6]: > 122 µM (inactive)

Cc1cccnc1NC(=O)COc1ccc2c(c1)CCC2
IC50 (cells): > 67.6 µM (inactive) | IC50 [1]: > 67.6 µM (inactive)

Cc1ccc(N=C(S)NNC(=O)c2ccccc2O)c(C)c1
IC50 [6]: > 122 µM (inactive)

Cc1ccccc1NC(=O)Cn1c(C)nc2ccc(N)cc2c1=O
IC50 [3]: > 1.11 µM (active)

COCCn1c(C)cc(C(=O)COC(=O)c2ccc(Cl)c(S(N)(=O)=O)c2)c1C
IC50 (cells): > 67.5 µM (inactive) | IC50 [1]: > 67.5 µM (inactive)

O=C(C/C=N\OCc1ccc([N+](=O)[O-])cc1)Nc1ccc(Br)cc1
IC50 [7]: > 47.1 µM (inactive) | EC50 [8]: > 53 µM (inactive) | IC50 [9]: 1.25 µM (active) | IC50 [10]: 83.3 µM (inactive) | IC50 [11]: 0.784 µM (active) | IC50 (Fatty acid synthase [12]): 10.1 µM (active) | IC50 (Fatty acid synthase [13]): 7.6 µM (active)

O=C1Nc2c(Cl)cccc2C1=O
AC50 [14]: 9.86 µM (active)

C[C@H](CO)N1C[C@H](C)[C@@H](CN(C)Cc2ccccc2)Oc2ccc(NC(=O)Nc3ccc(C(F)(F)F)cc3)cc2CC1=O
AC50 (Paired box protein Pax-8): 9.3 µM (active) | AC50 [15]: 51.8 µM (active) | AC50 [16]: 46.6 µM (active)

N#C/C(=N\Nc1cc(Cl)cc(Cl)c1)c1nnc2n1CCCCC2
IC50 [9]: 27.4 µM (inactive) | IC50 [10]: 83.3 µM (inactive) | IC50 [11]: 16.6 µM (inactive)

Oc1ccccc1/C=N/c1cccc2ccccc12
IC50 [3]: > 3.33 µM (active)
